Source: EPA's ToxValDB 9.5 (doi:10.2903/j.efsa.2016.4498)
≈ marks a conversion by molar mass, not a printed value.

How the values were obtained:
Daphnia magna = conditions: chronic/long-term; duration: 21 days; mortality
Rattus norvegicus = conditions: acute; oral; mortality
Pimephales promelas = conditions: mortality
Hypoaspis aculeifer = conditions: chronic/long-term; mortality
Elodea callitrichoides = conditions: chronic/long-term; duration: 42 days
Oryctolagus sp. = conditions: chronic
Apis mellifera = conditions: acute, mortality
Tagia sp. = conditions: chronic/long-term; growth

CNC1=C(c2cccc(C(F)(F)F)c2)C(=O)C(c2ccccc2)O1 (configuration not stated) [Flurtamone]
LD50 (Colinus virginianus; acute, oral, mortality): > 2530 mg/kg | NOEC (Colinus virginianus; chronic): 7.3 mg/kg-day | NOEC (Daphnia magna): 0.071 mg/L | LD50 (Rattus norvegicus): > 5000 mg/kg | LC50 (Pimephales promelas; acute, duration: 96 hours): 6.64 µg/mL (≈ 19.9 µM) | NOEC (Pimephales promelas; chronic/long-term, duration: 35 days): 0.188 mg/L | NOEC (Hypoaspis aculeifer): 89 mg/kg | NOEC (Elodea callitrichoides): 0.001 mg/L | NOAEL (Oryctolagus sp.): 20 mg/kg-day | LD50 (Apis mellifera; dermal): > 100 µg/piece | LD50 (Apis mellifera; oral, unspecified): > 105 µg/piece | NOEC (Tagia sp.): 47.5 mg/kg
